Source: US8658638B2, “Mineralocorticoid receptor antagonist and methods of use” (priority 2009, dated 2014)

Biological target: T1, human glucocorticoid receptor (GR) (Homo sapiens, UniProt P04150)
T1 construct: expressed in transfected cells; host or cells: HEK293
T1 sequence (P04150 1-777): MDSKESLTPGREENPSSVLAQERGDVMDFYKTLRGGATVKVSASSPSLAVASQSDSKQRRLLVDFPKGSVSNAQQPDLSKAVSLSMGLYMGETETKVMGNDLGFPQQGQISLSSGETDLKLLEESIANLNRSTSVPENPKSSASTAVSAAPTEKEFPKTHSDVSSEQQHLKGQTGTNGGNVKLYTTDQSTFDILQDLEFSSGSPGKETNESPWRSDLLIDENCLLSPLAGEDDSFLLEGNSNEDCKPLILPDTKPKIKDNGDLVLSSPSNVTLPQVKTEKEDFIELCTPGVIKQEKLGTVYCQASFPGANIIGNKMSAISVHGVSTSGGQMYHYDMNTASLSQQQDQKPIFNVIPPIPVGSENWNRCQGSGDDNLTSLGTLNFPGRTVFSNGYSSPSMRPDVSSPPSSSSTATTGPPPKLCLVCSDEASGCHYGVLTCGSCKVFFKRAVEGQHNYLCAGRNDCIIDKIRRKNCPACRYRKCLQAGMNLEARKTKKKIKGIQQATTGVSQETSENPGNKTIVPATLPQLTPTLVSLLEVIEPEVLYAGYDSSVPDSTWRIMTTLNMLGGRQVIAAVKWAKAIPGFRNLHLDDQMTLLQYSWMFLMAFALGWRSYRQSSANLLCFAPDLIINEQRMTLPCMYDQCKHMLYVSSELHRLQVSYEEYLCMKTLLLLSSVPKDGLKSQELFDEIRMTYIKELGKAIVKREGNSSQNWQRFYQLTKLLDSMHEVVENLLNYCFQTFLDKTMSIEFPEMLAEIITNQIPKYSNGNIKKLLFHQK
Experiment: Nuclear hormone receptor panel screen (luciferase reporter, HEK293), GR
Format: cell-based
Text: Aldosterone exerts it physiological effects through interaction with the mineralocorticoid receptor. Following cytoplasmic binding of aldosterone to MR, the ligand receptor complex translocates to the cell nucleus where it binds to hormone response elements on DNA to initiate expression of target genes. […] The solvents, reagents, and ligands employed in the functional assay are readily available from commercial sources, or can be prepared by one of ordinary skill in the art.
Human embryonic kidney HEK293 cells are transfected with steroid hormone receptor and reporter gene plasmids using a suitable transfection reagent such as Fugene™. […] After 24 hours incubation with test compounds, cells are lysed and luciferase activity is determined using standard techniques.
Data are fitted to a four parameter-fit logistic curve to determine EC50 values. […] IC50 values are determined similarly using antagonist mode assay data. In the antagonist mode, percent inhibitions are determined by comparing test compound activity in the presence of low concentration of agonist (0.08 nM aldosterone for MR, 0.25 nM dexamethasone for GR, 0.66 nM of methyltrienolone for AR, and 0.08 nM of promegestone for PR) to the response produced by the same low concentration of agonist in the absence of test compound.

With `O=c1[nH]c2cc(/C=C3\c4ccccc4COc4cc(F)ccc43)ccc2n1[C@@H]1C[C@@H]2COCCN2C1` [Compound (I), 5-((E)-(3-fluorodibenzo[b,e]oxepin-11(6H)-ylidene)methyl)-1-((7R,8aR)-hexahydro-1H-pyrrolo[2,1-c][1,4]oxazin-7-yl)-1H-benzo[d]imidazol-2(3H)-one] the EC50 (agonist mode) was > 10 µM and the IC50 (antagonist mode, 0.25 nM dexamethasone) was > 10 µM.
